≈ marks a conversion by molar mass, not a printed value.
Columns and labels:
[1] = Comparative solubility profile of crystalline forms in diluents
[2] = Chemical and polymorphic stability under stability testing conditions; format: physicochemical; settings: 25±2° C. and 75% RH, inert atmosphere
[3] = Polymorphic stability on storage, analysed by XRPD; format: physicochemical; settings: stored at 25° C.±2° C., about 70% RH (result sentence: about 76% RH), 6 weeks
[4] = diluent: Solvent Methylene chloride

Row | Structure (SMILES) | Solubility ([1]; diluent: Solvent Acetone) | Solubility ([1]; diluent: Solvent Alcohol (96%)) | Solubility ([1]; diluent: Solvent DMSO) | Solubility [1, 4] | Solubility ([1]; diluent: Water) | Solubility ([1]; diluent: pH Buffer 1.2 pH) | Solubility ([1]; diluent: pH Buffer 4.5 pH) | Solubility ([1]; diluent: pH Buffer 8.5 pH) | Solubility ([1]; DMSO, organic solvent or mixture, Solubility, diluent: Solvent DMSO) | Solubility ([1]; acetone, organic solvent or mixture, Solubility, diluent: Solvent Acetone) | Solubility ([1]; alcohol (96%), organic solvent or mixture, Solubility, diluent: Solvent Alcohol (96%)) | Solubility ([1]; methylene chloride, organic solvent or mixture, Solubility, diluent: Solvent Methylene chloride) | Solubility ([1]; pH buffer, pH 1.2, simulated gastric fluid, Solubility, diluent: pH Buffer 1.2 pH) | Solubility ([1]; pH buffer, pH 4.5, aqueous buffer, Solubility, diluent: pH Buffer 4.5 pH) | Solubility ([1]; pH buffer, pH 8.5, aqueous buffer, Solubility, diluent: pH Buffer 8.5 pH) | Solubility ([1]; water, Solubility, diluent: Water) | Chemical and polymorphic stability [2] | Polymorphic stability (XRPD) [3] | Solubility profile compared to known polymorphs (crystalline modifications A, B, and C) [1]
1 | CCOC(=O)Nc1ccc(NCc2ccc(F)cc2)cc1N [Modification-A, N-[2-amino-4-(4-fluorobenzylamino)-phenyl]carbamic acid ethyl ester] | 280 mg/mL (≈ 923 mM) | 23 mg/mL (≈ 75.8 mM) | 800 mg/mL (≈ 2640 mM) | 50 mg/mL (≈ 165 mM) | <0.1 mg/mL | 13 mg/mL (≈ 42.9 mM) | <0.1 mg/mL | <0.1 mg/mL |  |  |  |  |  |  |  |  |  |  | 
2 | CCOC(=O)Nc1ccc(NCc2ccc(F)cc2)cc1N [Modification-C, N-[2-amino-4-(4-fluorobenzylamino)-phenyl]carbamic acid ethyl ester] |  |  |  |  |  |  |  |  | 700 mg/mL (≈ 2310 mM) | 310 mg/mL (≈ 1020 mM) | 16 mg/mL (≈ 52.7 mM) | 50 mg/mL (≈ 165 mM) | 11 mg/mL (≈ 36.3 mM) | < 0.1 mg/mL | < 0.1 mg/mL | < 0.1 mg/mL |  |  | 
3 | CCOC(=O)Nc1ccc(NCc2ccc(F)cc2)cc1N [Form-II, N-[2-amino-4-(4-fluorobenzylamino)-phenyl]carbamic acid ethyl ester] | 250 mg/mL (≈ 824 mM) | 24 mg/mL (≈ 79.1 mM) | 700 mg/mL (≈ 2310 mM) | 70 mg/mL (≈ 231 mM) | <0.1 mg/mL | 10 mg/mL (≈ 33 mM) | <0.1 mg/mL | <0.1 mg/mL |  |  |  |  |  |  |  |  | substantially stable chemically and polymorphically | polymorphically stable | better solubility profile
4 | CCOC(=O)Nc1ccc(NCc2ccc(F)cc2)cc1N [Modification-B, N-[2-amino-4-(4-fluorobenzylamino)-phenyl]carbamic acid ethyl ester] | 280 mg/mL (≈ 923 mM) | 22 mg/mL (≈ 72.5 mM) | 700 mg/mL (≈ 2310 mM) | 80 mg/mL (≈ 264 mM) | <0.1 mg/mL | 10 mg/mL (≈ 33 mM) | <0.1 mg/mL | <0.1 mg/mL |  |  |  |  |  |  |  |  |  |  | 
5 | CCOC(=O)Nc1ccc(NCc2ccc(F)cc2)cc1N [Form-I, N-[2-amino-4-(4-fluorobenzylamino)-phenyl]carbamic acid ethyl ester] | 290 mg/mL (≈ 956 mM) | 25 mg/mL (≈ 82.4 mM) | 700 mg/mL (≈ 2310 mM) | 40 mg/mL (≈ 132 mM) | <0.1 mg/mL | 10 mg/mL (≈ 33 mM) | <0.1 mg/mL | <0.1 mg/mL |  |  |  |  |  |  |  |  | substantially stable chemically and polymorphically | polymorphically stable | better solubility profile

Source: patent US20140350285A1, “NOVEL POLYMORPHS OF N-[2-AMINO-4-(4-FLUOROBENZYLAMINO)-PHENYL] CARBAMIC ACID ETHYL ESTER AND PROCESSES THEREOF” (SYMED LABS LIMITED, priority 2012, published 2014)
